Measured values reported in PubChem BioAssay (NCI).
“And” between values parts separate entries of the source, which are not always exact repeats. Equal values may be shown once.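 Five compound concentrations were applied to cells in 96-well plates for 48 hours; endpoints were derived by simple linear interpolation of the resulting dose-response curve. Abbreviation: GI50, concentration required for 50% inhibition of growth. TGI: total growth inhibition.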

What was measured:
Test in all cases: NCI tumour cell line growth inhibition, 48 h
[1] = system: RXF 393 renal
[2] = system: SF-539 CNS
[3] = system: HL-60(TB) leukemia
[4] = system: HCT-116 colon
[5] = system: SNB-75 CNS
[6] = system: NCI/ADR-RES ovarian
[7] = system: TK-10 renal
[8] = system: IGROV1 ovarian
[9] = system: KM12 colon
[10] = system: SK-MEL-5 melanoma

| Structure (SMILES) | GI50 [1] | TGI [1] | GI50 [2] | TGI [2] | GI50 [3] | TGI [3] | GI50 [4] | TGI [4] | GI50 [5] | TGI [5] | GI50 [6] | TGI [6] | GI50 [7] | TGI [7] | GI50 [8] | TGI [8] | GI50 [9] | TGI [9] | GI50 [10] | TGI [10] |
| --- | --- | --- | --- | --- | --- | --- | --- | --- | --- | --- | --- | --- | --- | --- | --- | --- | --- | --- | --- | --- |
| Nc1ccc(C2=NN(c3ccccc3)C(c3ccc(Cl)cc3)C2)cc1 (centres undefined) | 1.55 µM | 3.12 µM | 1.93 µM | 4.21 µM | 3.71 µM | 22.8 µM | 1.64 µM | 3.01 µM | 3.76 µM | 16.2 µM | 3.64 µM | 19.4 µM | 2.13 µM | 6.16 µM | 2.89 µM | 8.15 µM | 1.68 µM | 3.11 µM | 2.71 µM | 8.48 µM |
| OCc1ccc(-c2ccc(-c3ccc(CO)o3)[se]2)o1 | > 100 µM | > 100 µM | > 100 µM | > 100 µM | 39.7 µM | > 100 µM | 69.4 µM | > 100 µM | 37 µM | > 100 µM | > 60.9 µM | > 100 µM | > 100 µM | > 100 µM | 9.28 µM | > 100 µM | > 74.3 µM | > 100 µM | 34.8 µM | > 100 µM |
| COc1ccc(-c2cn[nH]c2-c2cc(OC)c3c(c2)OCO3)cc1 | 0.176 µM | 0.684 µM | 0.193 µM | 0.539 µM | 0.22 µM | 0.771 µM | 0.277 µM | 11.7 µM | 0.134 µM | 0.707 µM | 0.12 µM | 27.4 µM | 1.51 µM | 63.3 µM | 0.984 µM | 26.7 µM | 0.0929 µM | 11.1 µM | 0.277 µM | 8.7 µM |
| CC(C(=O)c1ccccc1)C(c1ccccc1)N1CCOCC1 (centres undefined) |  | > 100 µM |  | > 100 µM |  | > 100 µM |  | > 100 µM |  | > 100 µM |  | > 100 µM |  | > 100 µM |  | > 100 µM |  | > 100 µM |  | > 100 µM |
| O=C1c2ccccc2-c2c1c1c(=O)[nH]c3ccccc3c1n2Cc1ccccc1 | 29.7 µM | 70.4 µM | 17.8 µM | 40.5 µM | > 100 µM | > 100 µM | 39.9 µM | > 100 µM | 15.6 µM | 30.1 µM | 52.6 µM | > 100 µM | 15.1 µM | 29.2 µM | 29.9 µM | 97.3 µM | > 100 µM | > 100 µM | > 100 µM | > 100 µM |
| CCCNNC(=O)/C=C/c1ccc(CNCCc2c(C)[nH]c3ccccc23)cc1 | 0.011 µM | 0.0479 µM | 0.0435 µM | 3.78 µM | 0.0123 µM | 3.96 µM | 0.00887 µM | 0.324 µM | 0.0753 µM | 2.94 µM | 0.169 µM | 2.29 µM | 0.00506 µM | 0.133 µM | < 0.0339 µM | 0.216 µM | 0.0485 µM | 0.966 µM | 0.0447 µM | 0.122 µM |
| COc1cc(/C=C2\C(=O)Nc3cc(C)c(O)cc32)cc(OC)c1OC | 3.46 µM | 13.4 µM | 5.41 µM | 19.6 µM | 1.74 µM | 5.84 µM | 4.07 µM | 15.8 µM | 3.03 µM | > 30 µM | 5.01 µM | 48.1 µM | 12.8 µM | 40.4 µM | 5.35 µM | 21.3 µM | 2.62 µM | 11.4 µM | 2.52 µM | 9.17 µM |
| CNC(=O)c1ccc(N2CCN(Cc3ccc4nc(C)c(=O)[nH]c4c3F)CC2)c(F)n1 | 13.1 µM | 62.5 µM | 55.4 µM | > 100 µM | > 100 µM | > 100 µM | 91.4 µM | > 100 µM | 16.4 µM | 63.8 µM | 78.8 µM | > 100 µM | 72.3 µM | > 100 µM | > 100 µM | > 100 µM | > 100 µM | > 100 µM | 30.5 µM | > 100 µM |
| CC(C)(C)C(=O)c1c(C(F)(F)F)n([O-])c2ccccc2[n+]1=O | 0.868 µM | 2.28 µM | 0.846 µM | 2.37 µM | 0.204 µM | 1.08 µM | 0.619 µM | 1.59 µM | 0.46 µM | 2.05 µM | 0.571 µM | 2.36 µM | 0.896 µM | 2.18 µM | 0.0505 µM | 0.172 µM | 0.905 µM | 2.4 µM | 0.24 µM | 0.83 µM |
| O=c1c(Oc2ccc(F)cc2F)cc2cnc(NC3CCOCC3)nc2n1CCCO | > 25 µM | > 25 µM | > 25 µM | > 25 µM | > 25 µM | > 25 µM | > 25 µM | > 25 µM | 24.4 µM | > 25 µM | > 25 µM | > 25 µM | > 25 µM | > 25 µM | > 25 µM | > 25 µM | > 25 µM | > 25 µM | > 25 µM | > 25 µM |
| Fc1ccc2[nH]cc(-c3nonc3-c3c[nH]c4ccc(Br)cc34)c2c1 | 2.85 µM | 8.75 µM | 2.15 µM | 5.27 µM | 2.94 µM | 11.6 µM | 1.84 µM | 4.23 µM | 1.89 µM | 16.9 µM | 2.87 µM | 10.1 µM | 3.04 µM | 6.63 µM | 3.41 µM | 18.3 µM | 1.77 µM | 4.05 µM | 1.88 µM | 4.25 µM |
| FC(F)c1nc2ccccc2n1-c1nc(N2CCOCC2)nc(N2CCOCC2)n1 | 0.0964 µM and 0.138 µM | 0.625 µM and 0.674 µM | 0.382 µM and 0.457 µM | 2.29 µM and 3.52 µM | 0.153 µM and 0.351 µM | > 100 µM | 0.618 µM and 0.734 µM | > 100 µM | 0.0257 µM and 0.0295 µM | 0.403 µM and 0.481 µM | 0.457 µM and 0.496 µM | > 100 µM | 0.129 µM and 0.205 µM | 0.907 µM and 1.58 µM | 0.0621 µM and 0.165 µM | 0.369 µM and 0.593 µM | 0.739 µM and 0.969 µM | > 100 µM | 0.453 µM and 0.338 µM | 2.11 µM and 2.37 µM |
| Cc1nc(SCC(=O)Nc2nc(-c3ccc(Cl)cc3)cs2)n(Nc2ccccc2)c1C | 2.98 µM | 7.33 µM | 1.9 µM | 4.27 µM | 2.99 µM | > 100 µM | 1.84 µM | 4.62 µM | 3.48 µM | 16.2 µM | 2.6 µM | 7.18 µM | 3.65 µM | 13.8 µM | 3.36 µM | 20.6 µM | 2.95 µM | 14 µM | 2.24 µM | 6.31 µM |
| C#CCOc1cccc(-c2ncnc3cc(NC(=O)CCl)ccc23)c1 | 1.4 µM | 3.16 µM | 1.31 µM | 2.77 µM | 0.536 µM | 4.36 µM | 0.034 µM | 1.48 µM | 1.15 µM | 9.48 µM | 1.05 µM | 14.9 µM | 1.26 µM | 2.81 µM | 0.0612 µM | 1.92 µM | 0.622 µM | 3.2 µM | 0.684 µM | 2.19 µM |
| Cn1cc(C2=C(c3cn(CCCCN)c4ccccc34)C(=O)NC2=O)c2ccccc21 | > 25 µM | > 25 µM | > 25 µM | > 25 µM | > 25 µM | > 25 µM | > 25 µM | > 25 µM | > 25 µM | > 25 µM | > 25 µM | > 25 µM | > 25 µM | > 25 µM | > 25 µM | > 25 µM | > 25 µM | > 25 µM | > 25 µM | > 25 µM |
| Cc1cnc(NC(=O)Nc2cc(Br)c(C)cc2OC[C@@H]2CNCCO2)cn1 | 0.564 µM and 0.219 µM |  | 0.457 µM and 0.281 µM | 3.87 µM and 0.805 µM | 0.388 µM and 0.545 µM | 5.46 µM and 2.43 µM | 3.09 µM and 3.35 µM | > 10 µM and 13.3 µM | 4.61 µM and 2.95 µM | > 10 µM and 15.8 µM | 0.841 µM and 0.679 µM | > 10 µM and 11.7 µM | 0.703 µM and 2.18 µM | > 10 µM and 16.6 µM | 0.979 µM and 1.36 µM | > 10 µM and 17 µM | 1.2 µM and 1.19 µM | > 10 µM and 11.9 µM | 1.43 µM and 1.09 µM | 4.22 µM and 2.92 µM |
| CC(C)CCC(=O)c1ccoc1 |  | > 100 µM |  | > 100 µM |  | > 100 µM |  | > 100 µM |  | > 100 µM |  | > 100 µM |  | > 100 µM |  | > 100 µM |  | > 100 µM |  | > 100 µM |
| COc1cccc(-c2nc3sccn3c2-c2ccnc(NCCCNS(=O)(=O)c3cccc(F)c3)c2)c1 | 2.47 µM | > 100 µM | 3.87 µM | > 100 µM | 1.84 µM | 4.91 µM | 2.83 µM | > 100 µM | 1.73 µM | 5.47 µM | 2.09 µM | 6.41 µM | 3.8 µM | 31.9 µM | 2.39 µM | 9.77 µM | 3.17 µM | 27.3 µM | 1.56 µM | 3.63 µM |
| CC(=O)O[C@H]1CC[C@@]2(C)C(=CC[C@H]3[C@@H]4CC[C@H](c5cc(C(F)(F)F)n(C(C)=O)n5)[C@@]4(C)CC[C@@H]32)C1 |  | 17.8 µM |  | 21.9 µM |  | 15.4 µM |  | 15.8 µM |  | 20.8 µM |  | 24 µM |  | 14.9 µM |  | 16.4 µM |  | 20.9 µM |  | 15.3 µM |
| O=S(=O)(Nc1ccccc1Cl)c1ccc(-c2cnc(C3CC3)o2)cc1 | 0.266 µM | 1.18 µM | 0.332 µM | 2.33 µM | 0.274 µM | 0.886 µM | 0.401 µM | > 75.5 µM | 0.139 µM | 0.599 µM | 0.314 µM | 65.9 µM | 11.8 µM | > 100 µM | 0.68 µM | > 100 µM | 0.393 µM | 32.4 µM | 0.453 µM | 15.9 µM |
| Cc1cc(S(=O)(=O)Nc2nc3cscc3c(=O)n2Cc2ccccc2)c(S)cc1Cl | 36.2 µM | > 100 µM | 32.1 µM | > 100 µM | 44.1 µM | > 100 µM | 27.5 µM | > 100 µM | > 100 µM | > 100 µM | 53.4 µM | > 100 µM | 35 µM | > 100 µM | 64.9 µM | > 100 µM | 21.9 µM | 74.7 µM | 21.4 µM | > 100 µM |
